Source: patent US20230348369A1 (Cytokinetics, Inc., priority 2020, published 2023)
Read-outs that look alike come from different tables or passages of the source.

Target: human NAMPT (Homo sapiens, UniProt P43490)
Assay: Human recombinant enzyme assay (NMN fluorescence biochemical assay, activation of NAMPT)
In short: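 Activation of recombinant human NAMPT (6 nM) with 2.5 mM ATP, 20 μM PRPP and 150 μM nicotinamide in 50 mM HEPES pH 7.2, 1 mM DTT, 1 mM CHAPS, 50 mM NaCl, 100 mM MgCl2; 60 min, ambient temperature. NMN formed was derivatized with acetophenone/KOH/formic acid, fluorescence read at 355/460 nm after 40 min.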

[1] = Table A, human recombinant NAMPT, NMN formation, 60 min
[2] = Table A, human recombinant NAMPT, NMN formation, 60 min, read-out: EC50 Human

Chain of human NAMPT (P43490 whole entry): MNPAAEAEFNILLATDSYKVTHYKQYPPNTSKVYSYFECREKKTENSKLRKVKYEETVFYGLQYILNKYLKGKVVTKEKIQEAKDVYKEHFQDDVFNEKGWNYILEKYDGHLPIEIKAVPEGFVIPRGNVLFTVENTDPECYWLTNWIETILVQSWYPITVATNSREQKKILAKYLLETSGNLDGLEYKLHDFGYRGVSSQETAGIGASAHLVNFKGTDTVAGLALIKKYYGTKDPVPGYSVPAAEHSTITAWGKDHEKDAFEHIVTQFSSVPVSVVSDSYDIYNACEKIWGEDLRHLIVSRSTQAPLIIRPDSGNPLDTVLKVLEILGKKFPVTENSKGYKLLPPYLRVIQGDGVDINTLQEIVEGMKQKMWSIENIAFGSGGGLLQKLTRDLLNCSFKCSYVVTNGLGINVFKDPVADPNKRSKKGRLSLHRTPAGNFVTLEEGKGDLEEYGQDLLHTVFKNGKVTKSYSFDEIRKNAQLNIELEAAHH

Compound | AC1.4 Human [1] [µM] | EC50 [2] [µM] | EC50 (read-out: EC50 Human, Table A, human recombinant NAMPT, NMN formation, 60 min) [µM] | EC50 [µM]
COc1ccc(CNC(=O)NC2CC3(C2)CN(C(=O)C(C)(C)c2ccc(C)cc2)C3)cc1 [Compound 153, 1-(4-methoxybenzyl)-3-(2-(2-methyl-2-(p-tolyl)propanoyl)-2-azaspiro[3.3]heptan-6-yl)urea] | 2.3 | 26.3 | – | –
COc1ccc(CNC(=O)NC2CC3(C2)CN(C(=O)C(C)(C)c2cccc(C)c2)C3)cc1 [Compound 154, 1-(4-methoxybenzyl)-3-(2-(2-methyl-2-(m-tolyl)propanoyl)-2-azaspiro[3.3]heptan-6-yl)urea] | 2.1 | 31 | – | –
COc1ccc(CNC(=O)NC2CC3(C2)CN(C(=O)c2ccc(OC)cc2)C3)cc1 [Compound 155, 1-(2-(4-methoxybenzoyl)-2-azaspiro[3.3]heptan-6-yl)-3-(4-methoxybenzyl)urea] | 2.7 | 52.1 | – | –
COc1ccc(CNC(=O)NC2CC3(C2)CN(C(=O)c2ccc(C#N)cc2)C3)cc1 [Compound 156, 1-(2-(4-cyanobenzoyl)-2-azaspiro[3.3]heptan-6-yl)-3-(4-methoxybenzyl)urea] | 11.0 | 45.8 | – | –
COc1ccc(CNC(=O)NC2CC3(C2)CN(C(=O)c2ccc(C(C)(C)O)cc2)C3)cc1 [Compound 157, 1-(2-(4-(2-hydroxypropan-2-yl)benzoyl)-2-azaspiro[3.3]heptan-6-yl)-3-(4-methoxybenzyl)urea] | 4.1 | 47.6 | – | –
COc1ccc(CNC(=O)NC2CC3(C2)CN(C(=O)c2ccc(Cl)cc2)C3)cc1 [Compound 158, 1-(2-(4-chlorobenzoyl)-2-azaspiro[3.3]heptan-6-yl)-3-(4-methoxybenzyl)urea] | 2.7 | 39.1 | – | –
Cc1ccc(C(=O)N2CC[C@]3(C2)C[C@@H](NC(=O)NCc2ccc(Cl)cc2)C3)cc1 [Compound 159, 1-(4-chlorobenzyl)-3-((2r,4s)-6-(4-methylbenzoyl)-6-azaspiro[3.4]octan-2-yl)urea] | 8.7 | 23.1 | – | –
Cc1cc(C(=O)N2CC[C@]3(C2)C[C@@H](NC(=O)NCc2ccc(Cl)cc2)C3)ccn1 [Compound 160, 1-(4-chlorobenzyl)-3-((2r,4s)-6-(2-methylisonicotinoyl)-6-azaspiro[3.4]octan-2-yl)urea] | 13.6 | 42.6 | – | –
COc1ccc(C(=O)N2CC[C@]3(C2)C[C@@H](NC(=O)NCc2ccc(Cl)cc2)C3)cc1 [Compound 163, 1-(4-chlorobenzyl)-3-((2r,4s)-6-(4-methoxybenzoyl)-6-azaspiro[3.4]octan-2-yl)urea] | 12.4 | 27.9 | – | –
COc1ccc(C(=O)N2CC[C@]3(C2)C[C@H](NC(=O)NCc2ccc(Cl)cc2)C3)cc1 [Compound 165, 1-(4-chlorobenzyl)-3-((2s,4r)-6-(4-methoxybenzoyl)-6-azaspiro[3.4]octan-2-yl)urea] | 15.9 | 49.4 | – | –
Cc1cnccc1C(=O)N1CC[C@]2(C1)C[C@@H](NC(=O)NCc1ccc(Cl)cc1)C2 [Compound 166, 1-(4-chlorobenzyl)-3-((2r,4s)-6-(3-methylisonicotinoyl)-6-azaspiro[3.4]octan-2-yl)urea] | 14.2 | 42.8 | – | –
O=C(NCc1ccc(Cl)cc1)N[C@H]1C[C@]2(CCN(C(=O)c3ccc(F)cc3)C2)C1 [Compound 167, 1-(4-chlorobenzyl)-3-((2r,4s)-6-(4-fluorobenzoyl)-6-azaspiro[3.4]octan-2-yl)urea] | 11.8 | 27.5 | – | –
COC(=O)C1CC2(CC(NC(=O)NCc3ccc(Cl)cc3)C2)C1 (centres unmarked) [Compound 168, methyl 6-(3-(4-chlorobenzyl)ureido)spiro[3.3]heptane-2-carboxylate] | 9.5 | – | 39.3 | –
CC(C)c1cccc(C(=O)N2CC[C@]3(C2)C[C@@H](NC(=O)NCc2ccc(Cl)cc2)C3)c1 [Compound 169, 1-(4-chlorobenzyl)-3-((2r,4s)-6-(3-isopropylbenzoyl)-6-azaspiro[3.4]octan-2-yl)urea] | 7.1 | 9.3 | – | –
O=C(NCc1ccc(Cl)cc1)N[C@H]1C[C@]2(CCN(c3ncccn3)C2)C1 [Compound 170, 1-(4-chlorobenzyl)-3-((2s,4r)-6-(pyrimidin-2-yl)-6-azaspiro[3.4]octan-2-yl)urea] | 15.1 | 46.9 | – | –
Cc1cc(N2CC[C@]3(C2)C[C@@H](NC(=O)NCc2ccc(Cl)cc2)C3)ccn1 [Compound 171, 1-(4-chlorobenzyl)-3-((2r,4s)-6-(2-methylpyridin-4-yl)-6-azaspiro[3.4]octan-2-yl)urea] | 17.3 | 24.9 | – | –
CCc1cccc(C(=O)N2CC3(CC(NC(=O)NCc4ccc(OC)cc4)C3)C2)c1 [Compound 172, 1-(2-(3-ethylbenzoyl)-2-azaspiro[3.3]heptan-6-yl)-3-(4-methoxybenzyl)urea] | 1.9 | – | – | 22.9

Compound | AC1.4 Human [1] [µM] | EC50 [2] [µM] | EC50 (read-out: EC50 Human, Table A, human recombinant NAMPT, NMN formation, 60 min) [µM] | EC50 [µM]
COc1ccc(CNC(=O)NC2CC3(C2)CN(C(=O)c2cccc(C(C)C)c2)C3)cc1 [Compound 173, 1-(2-(3-isopropylbenzoyl)-2-azaspiro[3.3]heptan-6-yl)-3-(4-methoxybenzyl)urea] | 1.7 | 20.2 | – | –
COc1ccc(CNC(=O)NC2CC3(C2)CN(C(=O)c2cccc(C(C)(C)C)c2)C3)cc1 [Compound 174, 1-(2-(3-(tert-butyl)benzoyl)-2-azaspiro[3.3]heptan-6-yl)-3-(4-methoxybenzyl)urea] | 2.0 | 29.5 | – | –
COc1ccc(CNC(=O)NC2CC3(C2)CN(C(=O)c2cccc(C(C)(C)O)c2)C3)cc1 [Compound 175, 1-(2-(3-(2-hydroxypropan-2-yl)benzoyl)-2-azaspiro[3.3]heptan-6-yl)-3-(4-methoxybenzyl)urea] | 5.5 | 55.1 | – | –
COc1ccc(CNC(=O)NC2CC3(C2)CN(C(=O)c2cccc(OC)c2)C3)cc1 [Compound 176] | 2.0 | 21.9 | – | –
COc1ccc(CNC(=O)NC2CC3(C2)CN(C(=O)c2cccc(O)c2)C3)cc1 [Compound 177, 1-(2-(3-hydroxybenzoyl)-2-azaspiro[3.3]heptan-6-yl)-3-(4-methoxybenzyl)urea] | 2.8 | – | – | 11.2
COc1ccc(CNC(=O)NC2CC3(C2)CN(C(=O)c2cccc(N(C)C)c2)C3)cc1 [Compound 178, 1-(2-(3-(dimethylamino)benzoyl)-2-azaspiro[3.3]heptan-6-yl)-3-(4-methoxybenzyl)urea] | 3.1 | 21.4 | – | –
COc1ccc(CNC(=O)NC2CC3(C2)CN(C(=O)c2cccc(N4CCCC4)c2)C3)cc1 [Compound 179, 1-(4-methoxybenzyl)-3-(2-(3-(pyrrolidin-1-yl)benzoyl)-2-azaspiro[3.3]heptan-6-yl)urea] | 0.8 | – | – | 12.4
COc1ccc(CNC(=O)NC2CC3(C2)CN(C(=O)c2cccc(S(C)(=O)=O)c2)C3)cc1 [Compound 180, 1-(4-methoxybenzyl)-3-(2-(3-(methylsulfonyl)benzoyl)-2-azaspiro[3.3]heptan-6-yl)urea] | 7.8 | 37.6 | – | –
COC(=O)c1cccc(C(=O)N2CC3(CC(NC(=O)NCc4ccc(OC)cc4)C3)C2)c1 [Compound 181, methyl 3-(6-(3-(4-methoxybenzyl)ureido)-2-azaspiro[3.3]heptane-2-carbonyl)benzoate] | 3.0 | 29.7 | – | –
Cc1cccc(N2CC[C@]3(C2)C[C@@H](NC(=O)NCc2ccc(Cl)cc2)C3)n1 [Compound 183, 1-(4-chlorobenzyl)-3-((2r,4s)-6-(6-methylpyridin-2-yl)-6-azaspiro[3.4]octan-2-yl)urea] | 11.2 | 56 | – | –
O=C(NCc1ccc(Cl)cc1)NC1CC2(C1)CC(NC(=O)c1cccnc1)C2 (centres unmarked) [Compound 184, N-(6-(3-(4-chlorobenzyl)ureido)spiro[3.3]heptan-2-yl)nicotinamide] | 10.0 | 37.9 | – | –
O=C(NCc1ccc(Cl)cc1)NC1CC2(C1)CC(NC(=O)c1ccncc1)C2 (centres unmarked) [Compound 185, N-(6-(3-(4-chlorobenzyl)ureido)spiro[3.3]heptan-2-yl)isonicotinamide] | 11.6 | 22 | – | –
Cc1cc(C(=O)NC2CC3(CC(NC(=O)NCc4ccc(Cl)cc4)C3)C2)ccn1 (centres unmarked) [Compound 186, N-(6-(3-(4-chlorobenzyl)ureido)spiro[3.3]heptan-2-yl)-2-methylisonicotinamide] | 16.0 | 53.4 | – | –
COc1ccc(CNC(=O)NC2CC3(C2)CN(C(=O)c2cccc(N4CCCC4=O)c2)C3)cc1 [Compound 188, 1-(4-methoxybenzyl)-3-(2-(3-(2-oxopyrrolidin-1-yl)benzoyl)-2-azaspiro[3.3]heptan-6-yl)urea] | 0.9 | 13.4 | – | –
COc1ccc(CNC(=O)NC2CC3(C2)CN(C(=O)c2cccc(-n4cccc4)c2)C3)cc1 [Compound 189, 1-(2-(3-(1H-pyrrol-1-yl)benzoyl)-2-azaspiro[3.3]heptan-6-yl)-3-(4-methoxybenzyl)urea] | 1.4 | 21.3 | – | –
COc1ccc(CNC(=O)NC2CC3(C2)CN(C(=O)c2cccc(N4CCCCC4)c2)C3)cc1 [Compound 190, 1-(4-methoxybenzyl)-3-(2-(3-(piperidin-1-yl)benzoyl)-2-azaspiro[3.3]heptan-6-yl)urea] | 1.8 | 34 | – | –
COc1ccc(CNC(=O)NC2CC3(C2)CN(C(=O)c2cccc(N4CCOCC4)c2)C3)cc1 [Compound 191, 1-(4-methoxybenzyl)-3-(2-(3-morpholinobenzoyl)-2-azaspiro[3.3]heptan-6-yl)urea] | 1.3 | 23.8 | – | –
